Test results reported in patent US20220313621A1, “FORMULATIONS OF CANNABINOIDS FOR THE TREATMENT OF PSORIASIS” (priority 2017, published 2022).

Columns and labels:
[1] = Discoloration of CBD solutions; format: physicochemical; conditions: end of day 1
Source text: The CBD2 material dissolved like the CBD1 therefore the CBD2 is CBD without the discoloration properties of CBD1.

[2] = Solubility of CBD in solvents and excipients; format: physicochemical
Procedure: First, the solubility of cannabidiol (CBD) was assessed. The powder looked granulated under the microscope. […] The conclusions from the solubility studies were that OA and IPA were very good solvents and it was surprising that IPA was so much better than ethanol.
Solubility studies: CBD dissolved at the 10% level in AE and barely 9.5% in IPM. Further exploration was not conducted due to the small amount of drug API available for non-GMP work. CBD is soluble greater than 10% but probably not in excess of 20%, as the time to dissolve additional CBD was taking considerably longer.

[3] = in ethanol; cited from earlier work
anandamide = conditions: rat basophilic leukemia cells; cited from earlier work
[4] = Solubility of CBD in the Receptor Fluid; format: physicochemical; conditions: not told, aqueous with cosolvent or surfactant or cyclodextrin; PBS with 0.01 wt % NaN3, 4 wt % hydroxypropyl-cyclodextrin, 1 wt % Brij O20
rats = conditions: 5 mg/kg, i.v., once daily for 4 weeks; cited from earlier work
[5] = biological target: T1, human vanilloid receptor type 1 (VR1) (Homo sapiens, UniProt Q8NER1); conditions: HEK-hVR1 transfected cells; cited from earlier work
T1 construct: expressed in transfected cells; host or cells: HEK cells transfected with hVR1 (HEK-hVR1)
T1 sequence (Q8NER1 whole entry): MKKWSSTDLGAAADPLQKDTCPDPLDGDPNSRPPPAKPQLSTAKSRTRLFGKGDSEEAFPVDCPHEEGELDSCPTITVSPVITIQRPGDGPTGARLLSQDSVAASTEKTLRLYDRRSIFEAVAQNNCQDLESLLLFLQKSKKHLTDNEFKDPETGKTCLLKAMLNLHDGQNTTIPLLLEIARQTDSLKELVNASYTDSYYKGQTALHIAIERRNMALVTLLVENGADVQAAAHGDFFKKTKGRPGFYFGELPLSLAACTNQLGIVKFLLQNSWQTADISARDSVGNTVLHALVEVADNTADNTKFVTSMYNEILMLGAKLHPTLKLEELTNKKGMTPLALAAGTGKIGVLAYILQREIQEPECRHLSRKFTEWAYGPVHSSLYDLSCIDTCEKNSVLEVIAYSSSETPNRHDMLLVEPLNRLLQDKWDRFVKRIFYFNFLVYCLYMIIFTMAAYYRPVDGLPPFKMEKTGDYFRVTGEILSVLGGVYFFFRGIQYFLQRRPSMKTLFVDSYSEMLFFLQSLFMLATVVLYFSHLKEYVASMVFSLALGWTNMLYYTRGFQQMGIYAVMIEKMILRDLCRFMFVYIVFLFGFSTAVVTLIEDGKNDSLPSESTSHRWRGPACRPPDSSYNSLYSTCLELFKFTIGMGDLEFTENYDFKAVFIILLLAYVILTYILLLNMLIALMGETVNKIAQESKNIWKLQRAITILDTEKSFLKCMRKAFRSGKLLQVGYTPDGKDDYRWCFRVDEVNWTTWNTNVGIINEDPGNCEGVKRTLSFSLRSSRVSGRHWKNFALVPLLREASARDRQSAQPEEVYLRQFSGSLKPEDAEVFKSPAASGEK

sensitized guinea-pigs = conditions: 1 mg/kg i.v.; cited from earlier work

SMILES	discoloration of solution [1]	solubility (weight to weight) ([2]; in ethanol)	solubility (weight to weight) ([2]; in hexamethyldisiloxane (HDS))	solubility (weight to weight) ([2]; in isopropyl alcohol (IPA))	solubility ([2]; in isopropyl myristate (IPM)) [%]	solubility (weight to weight) ([2]; in mineral oil)	solubility (weight to weight) ([2]; in oleyl alcohol (OA))	solubility (weight to weight) ([2]; in propylene glycol (PG))	reported solubility [3] [%]	inhibition of anandamide (anandamide)	solubility [4] [µg/mL]	cardiac inflammation produced by doxorubicin (rats)	stimulation of human vanilloid receptor type 1 (VR1) [5]	ovalbumin-induced airway obstruction (sensitized guinea-pigs)
C=C(C)[C@@H]1CCC(C)=C[C@H]1c1c(O)cc(CCCCC)cc1O [CBD1]	coloured by the end of the day													
C=C(C)C1CCC(C)=CC1c1c(O)cc(CCCCC)cc1O (stereo not drawn) [CBD, 2-[3-methyl-6-(1-methylethenyl)-2-cyclohexen-1-yl]-5-pentyl-1,3-benzenediol]		6-7%	3-4%	greater than 14%	~9.5	3-4%	greater than 8%	6-7%	3.5	inhibit anandamide	> 50	attenuated cardiac inflammation produced by doxorubicin	maximum effect similar in efficacy to that of capsaicin	attenuated ovalbumin-induced airway obstruction
C=C(C)[C@@H]1CCC(C)=C[C@H]1c1c(O)cc(CCCCC)cc1O [CBD2]	None of the CBD2 solutions were coloured at the end of day 1													
